Source: the kinase profiling compilation of Christmann-Franck et al. (2016)

What was measured:
Conditions in all cases: compound 10.0 µM
AURKC (human) = AURKC (human) (UniProt Q9UQB9)
DCLK2 (human) = DCLK2 (human) (UniProt Q8N568)
CDKL1 (human) = CDKL1 (human) (UniProt Q00532)
CHEK2 (human) = CHEK2 (human) (UniProt O96017)
TRPM6 (human) = TRPM6 (human) (UniProt Q9BX84)
PRKCI (human) = PRKCI (human) (UniProt P41743)
[1] = tested on: FGFR3 (human), P22607 [G697C]
NTRK1 (human) = NTRK1 (human) (UniProt P04629)
LYN (human) = LYN (human) (UniProt P07948)
[2] = tested on: KIT (human), P10721 [V559D/V654A]
SIK3 (human) = SIK3 (human) (UniProt Q9Y2K2)
PIK3C2G (human) = PIK3C2G (human) (UniProt O75747)
MAP3K3 (human) = MAP3K3 (human) (UniProt Q99759)
STK17B (human) = STK17B (human) (UniProt O94768)
PRPF4B (human) = PRPF4B (human) (UniProt Q13523)
[3] = tested on: KIT (human), P10721 [L576P]
PAK6 (human) = PAK6 (human) (UniProt Q9NQU5)
CAMKK2 (human) = CAMKK2 (human) (UniProt Q96RR4)
DYRK1A (human) = DYRK1A (human) (UniProt Q13627)
SNRK (human) = SNRK (human) (UniProt Q9NRH2)
AKT1 (human) = AKT1 (human) (UniProt P31749)
PKN2 (human) = PKN2 (human) (UniProt Q16513)
CDK17 (human) = CDK17 (human) (UniProt Q00537)
MAPK3 (human) = MAPK3 (human) (UniProt P27361)
PRKCH (human) = PRKCH (human) (UniProt P24723)
EPHB3 (human) = EPHB3 (human) (UniProt P54753)
MAP3K5 (human) = MAP3K5 (human) (UniProt Q99683)
PLK2 (human) = PLK2 (human) (UniProt Q9NYY3)
CDC42BPB (human) = CDC42BPB (human) (UniProt Q9Y5S2)
SRMS (human) = SRMS (human) (UniProt Q9H3Y6)
PDGFRB (human) = PDGFRB (human) (UniProt P09619)
BMX (human) = BMX (human) (UniProt P51813)
CHUK (human) = CHUK (human) (UniProt O15111)
CASK (human) = CASK (human) (UniProt O14936)
PHKG2 (human) = PHKG2 (human) (UniProt P15735)
ERBB4 (human) = ERBB4 (human) (UniProt Q15303)
MAPK13 (human) = MAPK13 (human) (UniProt O15264)
MELK (human) = MELK (human) (UniProt Q14680)
CSNK1E (human) = CSNK1E (human) (UniProt P49674)
TBK1 (human) = TBK1 (human) (UniProt Q9UHD2)
DAPK2 (human) = DAPK2 (human) (UniProt Q9UIK4)
BMPR2 (human) = BMPR2 (human) (UniProt Q13873)

Sequence of FGFR3 (human), P22607 [G697C] (P22607 whole entry G697C, looked up): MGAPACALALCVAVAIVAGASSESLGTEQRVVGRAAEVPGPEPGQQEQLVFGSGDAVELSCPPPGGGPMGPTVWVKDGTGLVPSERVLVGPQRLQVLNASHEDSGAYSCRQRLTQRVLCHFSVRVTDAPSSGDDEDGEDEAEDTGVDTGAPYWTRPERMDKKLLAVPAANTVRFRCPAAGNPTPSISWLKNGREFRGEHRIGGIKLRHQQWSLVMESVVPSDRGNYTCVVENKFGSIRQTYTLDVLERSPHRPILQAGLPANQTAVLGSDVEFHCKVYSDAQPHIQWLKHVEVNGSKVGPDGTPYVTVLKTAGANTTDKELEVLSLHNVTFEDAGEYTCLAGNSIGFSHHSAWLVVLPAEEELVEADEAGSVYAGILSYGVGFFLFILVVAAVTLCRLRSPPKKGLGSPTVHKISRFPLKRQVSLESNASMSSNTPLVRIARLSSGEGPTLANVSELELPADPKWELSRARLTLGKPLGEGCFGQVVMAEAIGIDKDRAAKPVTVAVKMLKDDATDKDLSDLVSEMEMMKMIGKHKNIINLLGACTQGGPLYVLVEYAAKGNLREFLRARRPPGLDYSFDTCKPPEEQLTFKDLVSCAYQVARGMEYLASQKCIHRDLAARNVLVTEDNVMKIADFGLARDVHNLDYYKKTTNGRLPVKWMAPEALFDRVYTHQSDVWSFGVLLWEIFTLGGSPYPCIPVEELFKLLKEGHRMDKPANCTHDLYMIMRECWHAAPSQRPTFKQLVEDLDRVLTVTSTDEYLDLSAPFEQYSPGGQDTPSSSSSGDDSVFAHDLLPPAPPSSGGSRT
Sequence of PRKCH (human) (P24723 whole entry, looked up): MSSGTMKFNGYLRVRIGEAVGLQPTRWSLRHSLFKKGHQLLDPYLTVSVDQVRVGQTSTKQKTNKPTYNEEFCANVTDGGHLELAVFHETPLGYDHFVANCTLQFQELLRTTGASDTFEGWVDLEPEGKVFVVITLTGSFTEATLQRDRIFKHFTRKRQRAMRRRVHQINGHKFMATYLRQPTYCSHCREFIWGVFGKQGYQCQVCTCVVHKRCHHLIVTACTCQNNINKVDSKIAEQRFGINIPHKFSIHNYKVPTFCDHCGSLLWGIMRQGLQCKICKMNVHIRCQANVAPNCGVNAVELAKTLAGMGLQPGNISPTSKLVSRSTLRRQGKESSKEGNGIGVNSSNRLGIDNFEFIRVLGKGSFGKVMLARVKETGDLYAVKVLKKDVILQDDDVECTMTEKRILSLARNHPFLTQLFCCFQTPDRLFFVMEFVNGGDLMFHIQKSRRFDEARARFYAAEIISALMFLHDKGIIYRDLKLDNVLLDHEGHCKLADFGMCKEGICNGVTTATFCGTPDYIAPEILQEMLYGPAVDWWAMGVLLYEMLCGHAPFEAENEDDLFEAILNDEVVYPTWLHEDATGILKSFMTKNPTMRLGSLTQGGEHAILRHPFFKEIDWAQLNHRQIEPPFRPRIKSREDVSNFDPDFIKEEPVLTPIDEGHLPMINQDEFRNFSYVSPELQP
Sequence of KIT (human), P10721 [V559D/V654A] (P10721 whole entry V559D/V654A, looked up): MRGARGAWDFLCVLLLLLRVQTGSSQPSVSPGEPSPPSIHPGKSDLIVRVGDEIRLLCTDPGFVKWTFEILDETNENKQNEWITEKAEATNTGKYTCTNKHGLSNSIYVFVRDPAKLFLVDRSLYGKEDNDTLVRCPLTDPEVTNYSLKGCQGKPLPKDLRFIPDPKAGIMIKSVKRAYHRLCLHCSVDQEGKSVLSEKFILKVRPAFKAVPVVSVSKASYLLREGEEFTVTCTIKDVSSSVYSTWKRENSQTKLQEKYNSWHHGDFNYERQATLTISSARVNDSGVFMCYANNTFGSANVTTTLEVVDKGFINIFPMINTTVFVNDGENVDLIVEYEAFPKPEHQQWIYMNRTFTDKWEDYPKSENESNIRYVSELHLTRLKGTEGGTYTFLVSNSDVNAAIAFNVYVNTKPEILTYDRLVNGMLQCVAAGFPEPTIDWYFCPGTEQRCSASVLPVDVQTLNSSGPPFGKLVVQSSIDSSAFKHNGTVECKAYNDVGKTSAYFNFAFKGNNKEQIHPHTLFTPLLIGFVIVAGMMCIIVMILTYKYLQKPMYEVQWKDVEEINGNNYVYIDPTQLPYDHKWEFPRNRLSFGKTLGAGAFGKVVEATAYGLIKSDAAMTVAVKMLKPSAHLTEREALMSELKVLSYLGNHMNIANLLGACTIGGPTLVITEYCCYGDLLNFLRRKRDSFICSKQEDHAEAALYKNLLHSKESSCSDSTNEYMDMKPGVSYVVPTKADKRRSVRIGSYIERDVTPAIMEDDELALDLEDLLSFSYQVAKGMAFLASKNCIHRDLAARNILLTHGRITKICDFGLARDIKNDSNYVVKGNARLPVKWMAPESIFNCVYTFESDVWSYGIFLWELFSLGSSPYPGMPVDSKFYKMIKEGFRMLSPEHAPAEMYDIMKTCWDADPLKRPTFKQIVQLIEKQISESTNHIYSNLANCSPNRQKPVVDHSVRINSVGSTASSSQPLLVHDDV
Sequence of DCLK2 (human) (Q8N568 whole entry, looked up): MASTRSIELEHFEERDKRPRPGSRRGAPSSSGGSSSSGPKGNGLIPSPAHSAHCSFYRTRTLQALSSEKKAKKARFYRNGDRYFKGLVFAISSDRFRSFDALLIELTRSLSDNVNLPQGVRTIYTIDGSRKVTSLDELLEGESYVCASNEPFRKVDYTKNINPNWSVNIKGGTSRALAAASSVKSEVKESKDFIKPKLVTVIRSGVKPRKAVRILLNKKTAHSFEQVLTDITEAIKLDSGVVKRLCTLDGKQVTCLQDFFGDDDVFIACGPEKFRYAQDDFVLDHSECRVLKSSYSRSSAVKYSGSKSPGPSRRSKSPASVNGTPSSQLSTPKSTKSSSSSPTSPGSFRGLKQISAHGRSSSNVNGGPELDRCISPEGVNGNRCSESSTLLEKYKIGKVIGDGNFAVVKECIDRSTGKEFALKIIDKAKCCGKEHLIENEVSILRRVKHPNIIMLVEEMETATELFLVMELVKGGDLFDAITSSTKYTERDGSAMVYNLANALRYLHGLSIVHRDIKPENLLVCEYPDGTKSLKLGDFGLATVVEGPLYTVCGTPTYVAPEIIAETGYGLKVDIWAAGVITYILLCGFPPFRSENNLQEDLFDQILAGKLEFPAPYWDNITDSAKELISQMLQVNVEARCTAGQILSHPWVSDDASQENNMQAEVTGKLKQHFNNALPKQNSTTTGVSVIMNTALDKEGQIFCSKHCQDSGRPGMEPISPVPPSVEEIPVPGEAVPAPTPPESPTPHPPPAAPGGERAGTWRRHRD
Sequence of NTRK1 (human) (P04629 whole entry, looked up): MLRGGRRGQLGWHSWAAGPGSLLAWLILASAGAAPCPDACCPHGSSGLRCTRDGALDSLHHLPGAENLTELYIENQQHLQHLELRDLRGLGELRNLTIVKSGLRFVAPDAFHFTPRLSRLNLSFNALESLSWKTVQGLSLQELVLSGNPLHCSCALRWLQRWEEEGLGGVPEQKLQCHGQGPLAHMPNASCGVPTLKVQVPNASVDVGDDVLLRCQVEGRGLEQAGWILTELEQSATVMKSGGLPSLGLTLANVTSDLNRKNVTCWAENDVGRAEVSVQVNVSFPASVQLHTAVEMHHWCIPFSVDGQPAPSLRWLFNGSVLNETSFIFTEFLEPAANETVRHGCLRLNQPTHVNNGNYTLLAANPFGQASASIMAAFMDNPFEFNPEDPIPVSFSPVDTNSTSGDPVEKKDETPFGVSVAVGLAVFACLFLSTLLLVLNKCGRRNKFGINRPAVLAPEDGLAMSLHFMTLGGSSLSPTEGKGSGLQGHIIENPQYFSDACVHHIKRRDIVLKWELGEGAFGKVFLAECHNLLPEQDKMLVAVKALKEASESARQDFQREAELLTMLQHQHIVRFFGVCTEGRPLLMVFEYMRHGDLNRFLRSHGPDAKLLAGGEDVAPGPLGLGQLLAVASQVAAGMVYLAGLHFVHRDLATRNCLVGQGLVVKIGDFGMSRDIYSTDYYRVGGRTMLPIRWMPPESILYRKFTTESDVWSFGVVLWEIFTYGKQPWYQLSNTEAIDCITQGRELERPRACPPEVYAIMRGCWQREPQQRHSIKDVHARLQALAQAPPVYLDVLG
Sequence of PLK2 (human) (Q9NYY3 whole entry, looked up): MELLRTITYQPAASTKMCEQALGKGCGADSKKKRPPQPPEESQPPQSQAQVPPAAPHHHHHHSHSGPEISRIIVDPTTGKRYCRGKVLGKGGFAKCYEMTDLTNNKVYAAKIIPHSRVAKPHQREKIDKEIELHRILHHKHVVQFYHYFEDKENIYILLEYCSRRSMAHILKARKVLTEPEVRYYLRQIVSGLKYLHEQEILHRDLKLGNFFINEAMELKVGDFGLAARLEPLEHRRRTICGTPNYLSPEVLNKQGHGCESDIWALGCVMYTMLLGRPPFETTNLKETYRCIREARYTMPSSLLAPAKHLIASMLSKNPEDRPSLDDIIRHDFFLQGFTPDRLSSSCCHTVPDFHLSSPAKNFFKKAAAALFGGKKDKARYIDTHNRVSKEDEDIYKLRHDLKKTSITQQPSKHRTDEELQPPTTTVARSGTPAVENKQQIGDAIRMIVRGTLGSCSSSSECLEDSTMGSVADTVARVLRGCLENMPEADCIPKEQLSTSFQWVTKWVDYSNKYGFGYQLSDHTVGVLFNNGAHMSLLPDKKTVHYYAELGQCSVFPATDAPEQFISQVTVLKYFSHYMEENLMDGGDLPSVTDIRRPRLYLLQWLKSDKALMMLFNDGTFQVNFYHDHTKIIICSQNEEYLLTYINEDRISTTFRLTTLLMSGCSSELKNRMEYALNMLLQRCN
Sequence of AURKC (human) (Q9UQB9 whole entry, looked up): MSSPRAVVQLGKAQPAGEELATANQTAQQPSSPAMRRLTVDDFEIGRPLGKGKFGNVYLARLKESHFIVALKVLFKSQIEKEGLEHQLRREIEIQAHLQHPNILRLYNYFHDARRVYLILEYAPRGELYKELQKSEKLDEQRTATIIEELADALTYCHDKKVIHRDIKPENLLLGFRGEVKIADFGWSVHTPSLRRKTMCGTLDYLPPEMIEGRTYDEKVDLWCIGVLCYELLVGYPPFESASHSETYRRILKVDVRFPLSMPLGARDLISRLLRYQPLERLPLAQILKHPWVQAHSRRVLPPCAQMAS
Sequence of KIT (human), P10721 [L576P] (P10721 whole entry L576P, looked up): as the sequence (P10721 whole entry V559D/V654A, looked up) above, with D559V, L576P, A654V counted along it

Which results are given for `CNC(=O)c1cc(Oc2ccc(NC(=O)Nc3ccc(Cl)c(C(F)(F)F)c3)cc2)ccn1`?
per cent of control (AURKC (human)): 12%; per cent of control (DCLK2 (human)): 95%; per cent of control (CDKL1 (human)): 75%; per cent of control (CHEK2 (human)): 63%; per cent of control (TRPM6 (human)): 100%; per cent of control (PRKCI (human)): 100%; per cent of control [1]: 25%; per cent of control (NTRK1 (human)): 22%; per cent of control (LYN (human)): 11%; per cent of control [2]: 0.45%; per cent of control (SIK3 (human)): 100%; per cent of control (PIK3C2G (human)): 100%; per cent of control (MAP3K3 (human)): 97%; per cent of control (STK17B (human)): 66%; per cent of control (PRPF4B (human)): 94%; per cent of control [3]: 0%; per cent of control (PAK6 (human)): 86%; per cent of control (CAMKK2 (human)): 100%; per cent of control (DYRK1A (human)): 100%; per cent of control (SNRK (human)): 100%; per cent of control (AKT1 (human)): 100%; per cent of control (PKN2 (human)): 100%; per cent of control (CDK17 (human)): 13%; per cent of control (MAPK3 (human)): 95%; per cent of control (PRKCH (human)): 89%; per cent of control (EPHB3 (human)): 53%; per cent of control (MAP3K5 (human)): 100%; per cent of control (PLK2 (human)): 100%; per cent of control (CDC42BPB (human)): 100%; per cent of control (SRMS (human)): 96%; per cent of control (PDGFRB (human)): 0%; per cent of control (BMX (human)): 94%; per cent of control (CHUK (human)): 93%; per cent of control (CASK (human)): 100%; per cent of control (PHKG2 (human)): 100%; per cent of control (ERBB4 (human)): 92%; per cent of control (MAPK13 (human)): 21%; per cent of control (MELK (human)): 83%; per cent of control (CSNK1E (human)): 99%; per cent of control (TBK1 (human)): 100%; per cent of control (DAPK2 (human)): 100%; per cent of control (BMPR2 (human)): 100%

How did the per cent of control (AURKC (human)) turn out when `CNC(=O)c1cc(Oc2ccc(NC(=O)Nc3ccc(Cl)c(C(F)(F)F)c3)cc2)cc[n+]1[O-]` was run?
Its per cent of control is 15%.

What about the per cent of control (DCLK2 (human)) of the same molecule?
The per cent of control was 87%.

What about the per cent of control (CDKL1 (human)) of the same molecule?
Its per cent of control is 45%.

What about the per cent of control (CHEK2 (human)) of the same molecule?
The per cent of control was 21%.

And the per cent of control (TRPM6 (human))?
Its per cent of control is 100%.

What about the per cent of control (PRKCI (human)) of the same molecule?
The per cent of control was 100%.

And the per cent of control [1]?
Its per cent of control is 50%.

And the per cent of control (NTRK1 (human))?
The per cent of control was 4%.

What about the per cent of control (LYN (human)) of the same molecule?
Its per cent of control is 11%.

What about the per cent of control [2] of the same molecule?
The per cent of control was 0.45%.

And the per cent of control (SIK3 (human))?
Its per cent of control is 100%.

And the per cent of control (PIK3C2G (human))?
Its per cent of control is 100%.

What about the per cent of control (MAP3K3 (human)) of the same molecule?
The per cent of control was 96%.

What about the per cent of control (STK17B (human)) of the same molecule?
Its per cent of control is 62%.

And the per cent of control (PRPF4B (human))?
Its per cent of control is 99%.

What about the per cent of control [3] of the same molecule?
The per cent of control was 0%.

What about the per cent of control (PAK6 (human)) of the same molecule?
The per cent of control was 82%.

What about the per cent of control (CAMKK2 (human)) of the same molecule?
The per cent of control was 68%.

And the per cent of control (DYRK1A (human))?
Its per cent of control is 95%.

And the per cent of control (SNRK (human))?
The per cent of control was 95%.

What about the per cent of control (AKT1 (human)) of the same molecule?
The per cent of control was 100%.

What about the per cent of control (PKN2 (human)) of the same molecule?
The per cent of control was 91%.

What about the per cent of control (CDK17 (human)) of the same molecule?
Its per cent of control is 7.7%.

What about the per cent of control (MAPK3 (human)) of the same molecule?
Its per cent of control is 92%.

What about the per cent of control (PRKCH (human)) of the same molecule?
Its per cent of control is 84%.

And the per cent of control (EPHB3 (human))?
The per cent of control was 100%.

What about the per cent of control (MAP3K5 (human)) of the same molecule?
The per cent of control was 89%.

And the per cent of control (PLK2 (human))?
Its per cent of control is 77%.

And the per cent of control (CDC42BPB (human))?
The per cent of control was 97%.

And the per cent of control (SRMS (human))?
Its per cent of control is 10%.

What about the per cent of control (PDGFRB (human)) of the same molecule?
The per cent of control was 0%.

What about the per cent of control (BMX (human)) of the same molecule?
The per cent of control was 67%.

What about the per cent of control (CHUK (human)) of the same molecule?
Its per cent of control is 6.5%.

And the per cent of control (CASK (human))?
The per cent of control was 100%.

What about the per cent of control (PHKG2 (human)) of the same molecule?
Its per cent of control is 100%.

And the per cent of control (ERBB4 (human))?
The per cent of control was 100%.

What about the per cent of control (MAPK13 (human)) of the same molecule?
Its per cent of control is 0.55%.

What about the per cent of control (MELK (human)) of the same molecule?
The per cent of control was 65%.

And the per cent of control (CSNK1E (human))?
Its per cent of control is 100%.

And the per cent of control (TBK1 (human))?
The per cent of control was 100%.

And the per cent of control (DAPK2 (human))?
Its per cent of control is 100%.

And the per cent of control (BMPR2 (human))?
Its per cent of control is 98%.
